Consider 12 molecules from article PMC3969104 (Journal of Medicinal Chemistry, 2014).

Molecules are shown by their SMILES. Where only a bound is given, the exact number is not on record here.

The test system of data set [1] is elav-Gal4GS > UAS-hTDP-43 transgenic flies. Description: Lifespan of transgenic hTDP-43 Drosophila. It is filed as in vivo. The following applies: 100 nM compound, log rank test versus DMSO.
In a further data set the test system is 290 kinases panel. Particulars: cited from earlier work.
The test system of data set [2] is TDP-43 phosphorylation (pS409/410) in HEK293 cells. Description: Ethacrynic acid induced TDP-43 phosphorylation in HEK293 cells.
In data set [3] the test system is amyotrophic lateral sclerosis (ALS). Particulars: ALS patients; cited from earlier work.
For data set [4], the target named is T1, CK-1δ (Homo sapiens, UniProt P48730). The format is biochemical.
Data set [5] deals with T1, CK-1δ. Description: Kinetic studies on CK-1δ. The format is biochemical. Particulars: ATP 1 to 50 μM, casein 12.5 μM, double reciprocal plot.
The next data set deals with CK-1α1 (Homo sapiens, UniProt P48729). In words: KinomeScan screening, CK-1α1. It is filed as binding. Particulars: 10 μM.
The target of data set [6] is fms-related tyrosine kinase 1 (FLT1) (Homo sapiens, UniProt P17948). Description: KinomeScan screening, FLT1. It is filed as binding. Particulars: 10 μM.
Another data set concerns the target DYRK1A (Homo sapiens, UniProt Q13627). In words: KinomeScan screening, DYRK1A. Particulars: 10 μM. It is filed as binding.
The target in another data set is CDC like kinase 4 (CLK4) (Homo sapiens, UniProt Q9HAZ1). Description: KinomeScan screening, CLK4. It is filed as binding. Particulars: 10 μM.
Data set [7] is described as follows: PAMPA-BBB permeability assay. Particulars: PAMPA vehicle PBS:EtOH (70:30).
Data set [8] addresses T2, myosin light chain kinase 3 (MLCK) (Homo sapiens, UniProt Q32MK0).
T2 sequence (Q32MK0 1-819): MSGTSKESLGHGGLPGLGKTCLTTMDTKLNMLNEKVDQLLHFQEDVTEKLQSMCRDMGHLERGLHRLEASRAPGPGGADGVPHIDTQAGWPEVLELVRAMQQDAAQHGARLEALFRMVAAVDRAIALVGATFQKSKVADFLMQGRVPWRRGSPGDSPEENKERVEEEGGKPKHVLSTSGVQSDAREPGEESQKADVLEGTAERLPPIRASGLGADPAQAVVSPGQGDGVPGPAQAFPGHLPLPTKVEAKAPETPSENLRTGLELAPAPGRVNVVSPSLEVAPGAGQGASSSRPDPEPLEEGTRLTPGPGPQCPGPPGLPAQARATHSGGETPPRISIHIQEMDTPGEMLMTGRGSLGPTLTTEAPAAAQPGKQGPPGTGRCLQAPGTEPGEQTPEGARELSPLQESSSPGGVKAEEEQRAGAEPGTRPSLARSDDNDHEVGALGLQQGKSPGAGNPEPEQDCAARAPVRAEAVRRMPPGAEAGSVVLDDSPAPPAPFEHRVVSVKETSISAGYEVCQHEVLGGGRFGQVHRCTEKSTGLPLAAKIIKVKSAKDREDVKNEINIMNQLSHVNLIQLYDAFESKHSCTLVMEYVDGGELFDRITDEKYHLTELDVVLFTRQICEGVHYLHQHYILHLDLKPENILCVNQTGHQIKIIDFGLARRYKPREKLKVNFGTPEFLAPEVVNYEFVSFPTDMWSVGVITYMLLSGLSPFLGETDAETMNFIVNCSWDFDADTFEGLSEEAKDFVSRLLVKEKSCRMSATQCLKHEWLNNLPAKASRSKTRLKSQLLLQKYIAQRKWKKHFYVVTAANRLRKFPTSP
In words: KinomeScan screening, MLCK. Particulars: 10 μM. The format is binding.

A further data set addresses CK-1ε (Homo sapiens, UniProt P49674). Description: KinomeScan screening, CK-1ε. It is filed as binding. The following applies: 10 μM.
Data set [9] addresses T1, CK-1δ. Description: KinomeScan screening, CK-1δ. The format is binding. The following applies: 10 μM.
Another data set has as its target DYRK1B (Homo sapiens, UniProt Q9Y463). In words: KinomeScan screening, DYRK1B. It is filed as binding. Particulars: 10 μM.
The target of another data set is CDC like kinase 1 (CLK1) (Homo sapiens, UniProt P49759). In words: KinomeScan screening, CLK1. It is filed as binding. Particulars: 10 μM.
In the next data set the target is CK-1γ2 (Homo sapiens, UniProt P78368). In words: KinomeScan screening, CK-1γ2. It is filed as binding. The following applies: 10 μM.
In data set [10] the target is platelet-derived growth factor receptor (PDGFRB) (Homo sapiens, UniProt P09619). Description: KinomeScan screening, PDGFRB. The format is binding. The following applies: 10 μM.
Data set [11] deals with panel of 456 protein kinases. Description: KinomeScan selectivity screening on a kinase panel. It is filed as binding, human. The following applies: 10 μM, 456 kinases; number of kinases bound divided by distinct kinases tested.
Where [12] appears, read: HEK293, 1.5 h pretreatment, 150 μM ethacrynic acid.

T1 sequence (P48730 whole entry): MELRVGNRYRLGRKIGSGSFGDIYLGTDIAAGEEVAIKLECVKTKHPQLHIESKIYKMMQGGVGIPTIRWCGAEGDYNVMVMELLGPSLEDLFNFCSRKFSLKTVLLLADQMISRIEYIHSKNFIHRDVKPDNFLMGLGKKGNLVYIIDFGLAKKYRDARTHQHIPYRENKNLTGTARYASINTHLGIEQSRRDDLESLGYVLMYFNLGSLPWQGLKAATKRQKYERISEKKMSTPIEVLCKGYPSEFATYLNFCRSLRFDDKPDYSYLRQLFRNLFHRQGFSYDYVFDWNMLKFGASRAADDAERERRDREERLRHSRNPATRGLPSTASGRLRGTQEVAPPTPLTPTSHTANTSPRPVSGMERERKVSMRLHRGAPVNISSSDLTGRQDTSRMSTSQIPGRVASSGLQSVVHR
Sequence of CK-1α1 (P48729 whole entry): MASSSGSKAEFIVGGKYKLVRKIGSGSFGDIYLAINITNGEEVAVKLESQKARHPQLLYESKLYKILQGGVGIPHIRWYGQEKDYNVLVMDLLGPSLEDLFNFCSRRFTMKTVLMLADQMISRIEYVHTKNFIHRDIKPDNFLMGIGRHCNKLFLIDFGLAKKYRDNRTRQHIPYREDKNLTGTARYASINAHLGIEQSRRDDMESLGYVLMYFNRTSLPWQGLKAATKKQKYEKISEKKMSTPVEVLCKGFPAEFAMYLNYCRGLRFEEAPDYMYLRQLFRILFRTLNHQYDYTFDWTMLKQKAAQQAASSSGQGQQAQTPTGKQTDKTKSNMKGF
Sequence of CDC like kinase 4 (CLK4) (Q9HAZ1 whole entry): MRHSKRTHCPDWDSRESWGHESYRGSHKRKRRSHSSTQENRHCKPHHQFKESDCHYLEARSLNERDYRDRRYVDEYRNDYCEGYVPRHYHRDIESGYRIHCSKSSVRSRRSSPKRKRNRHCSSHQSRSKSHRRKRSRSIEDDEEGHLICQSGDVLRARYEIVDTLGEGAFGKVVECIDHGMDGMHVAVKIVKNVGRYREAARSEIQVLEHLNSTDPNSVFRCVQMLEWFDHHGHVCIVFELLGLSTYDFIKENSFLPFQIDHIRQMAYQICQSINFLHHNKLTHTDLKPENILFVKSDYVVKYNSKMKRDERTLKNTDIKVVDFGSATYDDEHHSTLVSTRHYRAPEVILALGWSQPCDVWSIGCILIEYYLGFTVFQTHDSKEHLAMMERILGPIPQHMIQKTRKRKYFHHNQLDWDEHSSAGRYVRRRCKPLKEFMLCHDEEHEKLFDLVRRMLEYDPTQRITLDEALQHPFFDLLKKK
Sequence of fms-related tyrosine kinase 1 (FLT1) (P17948 27-1338): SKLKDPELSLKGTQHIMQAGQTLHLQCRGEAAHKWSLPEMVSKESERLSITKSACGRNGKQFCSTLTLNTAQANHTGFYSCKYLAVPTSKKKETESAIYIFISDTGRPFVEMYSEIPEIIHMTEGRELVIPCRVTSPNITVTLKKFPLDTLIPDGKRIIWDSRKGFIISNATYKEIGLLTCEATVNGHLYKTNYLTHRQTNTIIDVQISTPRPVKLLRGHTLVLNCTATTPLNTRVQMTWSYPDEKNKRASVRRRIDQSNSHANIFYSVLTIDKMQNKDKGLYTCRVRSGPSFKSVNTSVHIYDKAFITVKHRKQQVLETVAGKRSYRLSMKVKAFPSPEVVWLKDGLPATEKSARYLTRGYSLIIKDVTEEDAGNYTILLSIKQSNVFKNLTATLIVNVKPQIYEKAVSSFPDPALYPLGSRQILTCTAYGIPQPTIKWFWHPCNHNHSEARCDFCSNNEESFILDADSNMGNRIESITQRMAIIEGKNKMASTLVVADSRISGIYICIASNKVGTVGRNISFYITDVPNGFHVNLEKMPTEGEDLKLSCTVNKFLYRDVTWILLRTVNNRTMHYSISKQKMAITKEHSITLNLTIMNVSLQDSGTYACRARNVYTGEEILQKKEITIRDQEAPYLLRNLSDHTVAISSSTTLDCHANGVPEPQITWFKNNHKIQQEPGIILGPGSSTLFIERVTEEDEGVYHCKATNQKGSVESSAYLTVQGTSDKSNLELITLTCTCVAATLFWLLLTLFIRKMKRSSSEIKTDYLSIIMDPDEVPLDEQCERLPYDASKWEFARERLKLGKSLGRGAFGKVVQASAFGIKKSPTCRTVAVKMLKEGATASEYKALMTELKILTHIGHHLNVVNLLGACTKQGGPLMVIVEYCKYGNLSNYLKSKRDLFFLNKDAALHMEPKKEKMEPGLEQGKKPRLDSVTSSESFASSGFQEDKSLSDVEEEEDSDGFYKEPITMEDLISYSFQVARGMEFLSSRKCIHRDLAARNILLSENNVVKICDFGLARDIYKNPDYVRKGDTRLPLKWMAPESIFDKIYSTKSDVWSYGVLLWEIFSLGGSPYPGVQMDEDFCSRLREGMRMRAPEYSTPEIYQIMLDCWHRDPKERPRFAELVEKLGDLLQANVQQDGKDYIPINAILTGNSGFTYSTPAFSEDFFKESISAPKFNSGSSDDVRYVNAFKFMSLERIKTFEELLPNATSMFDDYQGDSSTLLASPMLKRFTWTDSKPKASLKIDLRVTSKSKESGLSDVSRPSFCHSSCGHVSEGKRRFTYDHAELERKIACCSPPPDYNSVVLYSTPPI
Sequence of DYRK1B (Q9Y463 whole entry): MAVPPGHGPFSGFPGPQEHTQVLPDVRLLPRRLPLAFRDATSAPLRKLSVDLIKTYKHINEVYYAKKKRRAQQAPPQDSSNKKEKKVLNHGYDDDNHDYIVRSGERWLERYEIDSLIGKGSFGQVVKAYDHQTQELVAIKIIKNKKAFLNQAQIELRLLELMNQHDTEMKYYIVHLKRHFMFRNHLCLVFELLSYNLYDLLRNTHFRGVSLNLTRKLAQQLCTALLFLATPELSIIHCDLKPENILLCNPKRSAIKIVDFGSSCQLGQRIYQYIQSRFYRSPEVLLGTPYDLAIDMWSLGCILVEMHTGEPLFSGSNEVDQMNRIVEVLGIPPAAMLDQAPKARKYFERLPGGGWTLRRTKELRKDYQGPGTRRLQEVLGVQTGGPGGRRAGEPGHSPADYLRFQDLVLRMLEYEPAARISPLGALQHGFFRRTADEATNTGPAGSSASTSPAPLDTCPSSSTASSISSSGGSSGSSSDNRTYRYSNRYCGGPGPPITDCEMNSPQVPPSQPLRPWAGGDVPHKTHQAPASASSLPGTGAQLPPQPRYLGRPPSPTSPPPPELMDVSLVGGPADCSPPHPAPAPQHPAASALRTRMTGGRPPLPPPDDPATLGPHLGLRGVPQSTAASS
Sequence of platelet-derived growth factor receptor (PDGFRB) (P09619 33-1106): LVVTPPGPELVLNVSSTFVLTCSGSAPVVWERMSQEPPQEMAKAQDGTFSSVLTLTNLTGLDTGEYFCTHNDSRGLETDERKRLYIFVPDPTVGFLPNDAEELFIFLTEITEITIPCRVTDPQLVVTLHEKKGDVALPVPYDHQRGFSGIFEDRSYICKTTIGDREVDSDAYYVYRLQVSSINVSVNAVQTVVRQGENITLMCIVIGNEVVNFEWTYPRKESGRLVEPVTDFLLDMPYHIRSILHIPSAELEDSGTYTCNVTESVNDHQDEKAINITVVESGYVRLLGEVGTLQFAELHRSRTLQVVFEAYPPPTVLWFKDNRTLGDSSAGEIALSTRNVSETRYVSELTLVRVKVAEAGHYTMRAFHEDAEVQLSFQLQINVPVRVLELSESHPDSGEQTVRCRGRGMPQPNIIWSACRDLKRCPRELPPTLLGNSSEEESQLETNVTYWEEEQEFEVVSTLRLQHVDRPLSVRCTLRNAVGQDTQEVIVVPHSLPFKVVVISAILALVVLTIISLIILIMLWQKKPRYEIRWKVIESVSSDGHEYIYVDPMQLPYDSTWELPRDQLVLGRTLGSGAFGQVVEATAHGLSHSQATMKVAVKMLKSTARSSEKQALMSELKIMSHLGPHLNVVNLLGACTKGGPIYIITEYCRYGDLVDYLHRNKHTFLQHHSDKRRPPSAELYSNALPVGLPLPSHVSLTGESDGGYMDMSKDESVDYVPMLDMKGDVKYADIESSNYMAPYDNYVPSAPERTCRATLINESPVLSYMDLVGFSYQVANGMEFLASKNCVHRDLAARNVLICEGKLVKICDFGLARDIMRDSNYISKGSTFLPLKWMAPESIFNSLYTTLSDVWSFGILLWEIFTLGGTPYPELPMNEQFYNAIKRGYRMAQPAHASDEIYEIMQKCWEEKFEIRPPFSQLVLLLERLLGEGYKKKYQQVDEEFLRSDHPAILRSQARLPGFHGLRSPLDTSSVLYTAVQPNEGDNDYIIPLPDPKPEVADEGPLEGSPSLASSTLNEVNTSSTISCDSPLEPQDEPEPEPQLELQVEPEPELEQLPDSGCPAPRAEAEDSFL
Sequence of CDC like kinase 1 (CLK1) (P49759 whole entry): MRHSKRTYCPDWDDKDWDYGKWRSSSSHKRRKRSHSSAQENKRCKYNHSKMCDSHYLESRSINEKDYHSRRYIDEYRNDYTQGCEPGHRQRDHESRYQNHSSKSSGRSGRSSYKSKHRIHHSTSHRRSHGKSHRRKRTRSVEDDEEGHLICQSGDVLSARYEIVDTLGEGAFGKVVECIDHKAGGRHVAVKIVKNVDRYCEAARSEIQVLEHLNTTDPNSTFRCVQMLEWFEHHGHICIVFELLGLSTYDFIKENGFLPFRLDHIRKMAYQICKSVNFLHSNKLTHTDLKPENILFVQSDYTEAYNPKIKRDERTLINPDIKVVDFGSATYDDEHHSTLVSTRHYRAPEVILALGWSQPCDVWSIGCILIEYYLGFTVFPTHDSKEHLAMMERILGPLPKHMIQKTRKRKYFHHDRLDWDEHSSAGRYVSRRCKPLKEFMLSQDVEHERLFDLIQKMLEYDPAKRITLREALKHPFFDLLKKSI

Turning to `O=C(Cc1ccc(Cl)cc1)Oc1nc2ccccc2s1` [Compound 9, (Benzothiazol-2-yl)-2-(4-chlorophenyl)acetate], the “effect on fly lifespan” value in [1] is recorded as “did not significantly modify fly longevity”.

For the molecule `CS(=O)(=O)CCNCc1ccc(-c2ccc3ncnc(Nc4ccc(OCc5cccc(F)c5)c(Cl)c4)c3c2)o1` [Lapatinib], the S score in the data set on 290 kinases panel is 0.010.

With `O=C(Cc1ccccc1)Nc1nc2ccc(C(F)(F)F)cc2s1` [Compound 46, N-(6-(Trifluoromethyl)benzothiazol-2-yl)-2-phenylacetamide], the “concentration with nearly complete absence of TDP-43 phosphorylation” value in [2] (HEK293, 1.5 h pretreatment, 150 μM ethacrynic acid, range 1.25-160 μM) is at least 2.5 µM.

`Nc1nc2ccc(OC(F)(F)F)cc2s1` [Riluzole]: the extension of survival in data set [3] was 2–3 months.

Regarding `COc1ccc2nc(NC(=O)Cc3ccccc3OC)sc2c1` [Compound 35, N-(6-Methoxybenzothiazol-2-yl)-2-(2-methoxyphenyl)acetamide], the “effect on fly lifespan” value in data set [1] is on record as “significantly increased”. Further, at CK-1δ [4], the “fold less potent than 20 and 24 as CK-1δ inhibitor” value was 100 fold.

Consider `COc1ccccc1CC(=O)Nc1nc2ccc(C(F)(F)F)cc2s1` [Compound 34, N-(6-(Trifluoromethyl)benzothiazol-2-yl)-2-(2-methoxyphenyl)acetamide], for which the “mechanism of CK-1δ inhibition with respect to ATP” value (shortened to “mechanism of CK-1δ inhibition”) on CK-1δ [5] is reported as “ATP competitive inhibition”. The “concentration with inhibition of TDP-43 phosphorylation” value in data set [2] (setting [12]) is recorded as “above 80 μM”.

For the molecule `O=C(Cc1ccccc1Cl)Nc1nc2ccc(C(F)(F)F)cc2s1` [Compound 24, 2-(2-Chlorophenyl)-N-(6-(trifluoromethyl)benzothiazol-2-yl)acetamide], on CK-1α1, the “inhibition of CK-1α1” value is reported as “inhibited”. Also, in data set [6], the “inhibition of FLT1” value is listed as “inhibited”. Further, the “mechanism of CK-1δ inhibition” value at CK-1δ [5] is given as “ATP competitive inhibition”. Moreover, the “inhibition of DYRK1A” value on DYRK1A is given as “inhibited”. The “inhibition of CLK4” value against CDC like kinase 4 (CLK4) is given as “inhibited”. In [7], the “solubility in the assay vehicle” value is “low solubility”. In addition, the “inhibition of MLCK” value in data set [8] is on record as “inhibited”. At CK-1ε, the “inhibition of CK-1ε” value is “inhibited”. Moreover, at CK-1δ [9], the “inhibition of CK-1δ” value is on record as “inhibited”. At DYRK1B, the “inhibition of DYRK1B” value is on record as “inhibited”. The “inhibition of CLK1” value against CDC like kinase 1 (CLK1) is reported as “inhibited”. Also, the “effect on fly lifespan” value in data set [1] is recorded as “significantly increased”. In data set [2] (setting [12]), the “concentration with moderate inhibition of TDP-43 phosphorylation” value is at least 1.25 µM. The “inhibition of CK-1γ2” value against CK-1γ2 is on record as “inhibited”. In addition, the “inhibition of PDGFRB” value in data set [10] is recorded as “inhibited”.

With `CCN(CC)CCNC(=O)c1c(C)[nH]c(/C=C2\C(=O)Nc3ccc(F)cc32)c1C` [Sunitinib], the S score with 290 kinases panel is 0.57.

With `COc1cccc(CC(=O)Nc2nc3ccc(C(F)(F)F)cc3s2)c1` [Compound 38, N-(6-(Trifluoromethyl)benzothiazol-2-yl)-2-(3-methoxyphenyl)acetamide], the “concentration giving significant reduction of TDP-43 phosphorylation” value in [2] (setting [12]) amounted to 5 µM.

Consider `COc1cc(OC)c(C=C2C(=O)Nc3ccccc32)c(OC)c1` [IC261, reference compound], for which, at CK-1δ [5], the “mechanism of CK-1δ inhibition” value is recorded as “ATP competitive inhibitor”.

For `O=C(Cc1cccc(C(F)(F)F)c1)Nc1nc2ccc(C(F)(F)F)cc2s1` [Compound 41, N-(6-(Trifluoromethyl)benzothiazol-2-yl)-2-(3-(trifluoromethyl)phenyl)acetamide], the “fold reduction in TDP-43 phosphorylation” value in data set [2] (HEK293, by 10 μM inhibitor) is recorded as “greater than 2 fold”.

In the case of `O=C(Cc1cccc(Cl)c1)Nc1nc2ccc(C(F)(F)F)cc2s1` [Compound 20, 2-(3-Chlorophenyl)-N-(6-(trifluoromethyl)benzothiazol-2-yl)acetamide], the “inhibition of CK-1α1” value against CK-1α1 is given as “inhibited”. Also, the “inhibition of FLT1” value in data set [6] is “inhibited”. Also, at CK-1δ [5], the “mechanism of CK-1δ inhibition” value is “ATP competitive inhibition”. Besides, the “inhibition of DYRK1A” value at DYRK1A is listed as “inhibited”. For the same molecule, at CDC like kinase 4 (CLK4), the “inhibition of CLK4” value is reported as “inhibited”. Moreover, the “inhibition of MLCK” value in data set [8] is recorded as “inhibited”. Also, the “inhibition of CK-1ε” value on CK-1ε was “inhibited”. In addition, the “inhibition of CK-1δ” value on CK-1δ [9] was “inhibited”. The “inhibition of DYRK1B” value at DYRK1B was “inhibited”. The “inhibition of CLK1” value on CDC like kinase 1 (CLK1) is given as “inhibited”. The “effect on fly lifespan” value in [1] was “significantly increased”. The “concentration with inhibition of TDP-43 phosphorylation” value in data set [2] (setting [12]) is given as “above 80 μM”. In addition, the “inhibition of CK-1γ2” value against CK-1γ2 was “inhibited”. For the same molecule, the “inhibition of PDGFRB” value in [10] is on record as “inhibited”. In data set [11], the “selectivity score (S score)” value came out at 0.04.
